Test results reported in patent publication US20260001853A1, “ASCORBIC ACID DERIVATIVE OR SALT THEREOF, AND COSMETIC THEREOF” (SEIWA KASEI COMPANY, LIMITED, priority 2022, published 2026).

Tests used:
B16 melanoma 4A5 cells = assay: Melanin production inhibitory effect (theophylline-induced melanin production); type: cell-based, mouse; conditions: melanin production inhibition rate, sample at a concentration of 10 mM or less, 3 days culture, theophylline 1 mmol/L, N=4
Method: As a test of the whitening effect, the effect on theophylline-induced melanin production in B16 melanoma 4A5 cells was evaluated for the ascorbic acid derivatives of the present invention according to the following procedure. A similar evaluation was also performed for a known ascorbic acid derivative for comparison. The results are shown in Tables 9 to 11. • (1) B16 mouse melanoma 4A5 cells were seeded in a 48-well plate at a cell density of 8.0×10^3 cells/well. • (2) After culturing for 24 hours in Dulbecco's modified Eagle's medium (manufactured by SIGMA, hereinafter abbreviated as “D-MEM”) containing 10% fetal bovine serum, the medium was replaced with D-MEM containing 10% fetal bovine serum containing theophylline (final concentration 1 mmol/L) and a specified concentration of a sample. • (3) After culturing for 3 days in the presence of the sample, the medium was removed using an aspirator, distilled water was added, and the cells were disrupted by ultrasonication. • (4) The amount of protein was then quantified using a BCA protein assay kit (manufactured by PIERCE), and the amount of melanin produced was measured by an alkali solubilization method. Sodium hydroxide was added to the cell lysate to a final concentration of 1 mol/L, and the solution was dissolved by heating (60° C., 30 minutes), thereafter the absorbance at 405 nm was measured using a microplate reader. The amount of melanin was calculated from a calibration curve prepared using synthetic melanin (SIGMA) as a standard. The amount of melanin per unit protein was calculated by dividing the amount of melanin by the amount of protein. • (5) The melanin production inhibition rate was calculated using the following formula.
[In the formula, A represents the amount of melanin per unit protein (g/g) when the sample was added, B represents the amount of melanin per unit protein (g/g) in the normal group, and C represents the amount of melanin per unit protein (g/g) in the control group.]
The melanin production inhibition rate when the sample was measured at a concentration of 10 mM or less is expressed as follows. The measurement was performed with N=4. • <20%: ± • 20-40%: + • 40-60%: ++ • 60-100%: +++

[1] = system: Normal human dermal fibroblasts; assay: Collagen production promoting effect (ELISA of supernatant); type: cell-based; conditions: amount of collagen produced, % with control group taken as 100%; sample at 10 mmol/L or less, 48 hours, N=3
Method: Normal human dermal fibroblasts were prepared in D-MEM containing 5% (v/v) fetal bovine serum to a cell density of […] cells/well, and pre incubated on a 96-well plate for 24 hours. After removing the medium, samples prepared to a predetermined concentration in D-MEM containing 5% (v/v) fetal bovine serum were added to each well and cultured for 48 hours. After completion of the culture, the amount of free collagen in the supernatant was quantified by ELISA method. The measurement was performed with N=3.
(§1) The amount of collagen produced when the samples were measured at a concentration of 10 mmol/L or less was compared with that of the control group, and the results (% values when the control group is taken as 100%) are shown in Tables 15 to 17 based on the following criteria. • <100%: ± • 100-120%: + • 120%: ++

[2] = system: Normal human dermal fibroblasts (NHDF); assay: Hyaluronic acid production promoting effect (ELISA of supernatant); type: cell-based; conditions: amount of hyaluronic acid produced, % with control group taken as 100%; sample at 10 mmol/L or less, 48 hours, N=3
Method: Normal human dermal fibroblasts (NHDF) were prepared in D-MEM containing 5% (v/v) fetal bovine serum to a cell density of 2.5× 10^4 cells/well, and then pre-incubated on a 96-well plate for 24 hours. After removing the medium, samples prepared in serum-free D-MEM were added to each well and cultured for 48 hours. After the culture was completed, the amount of hyaluronic acid in the supernatant was quantified by ELISA method. The measurement was performed with N=3.
as §1, with “of hyaluronic acid” for “of collagen”, “Tables 18” for “Tables 15”, “to 20” for “to 17”, “• 120-150%:” for “• 120%:”, “++ • 150%: +++” for “++”

[3] = Stability test (residual rate by HPLC, odor, coloring); type: physicochemical; conditions: 1% aqueous solution; for Coloring / Odor: total score of 10 panelists
Method: With a dilute potassium hydroxide aqueous solution, 1% aqueous solution of each test sample was adjusted to pH 6, placed in a 50 mL screw tube, sealed, […], and then subjected to HPLC measurement (using a liquid chromatograph manufactured by Shimadzu Corporation) to determine the residual rate from the peak area. The residual rate, odor, and coloring degree were evaluated according to the following methods and criteria.
Residual rate: • ⊚: 90% or more • ◯: 80% or more, less than 90% • Δ: 60% or more, less than 80% • x: 20% or more, less than 60% • xx: Less than 20%
Evaluation was made by 10 panelists according to the following criteria. • 3: Almost odorless • 2: There is a slight strange odor. • 1: A strong odor is detected.
Based on the evaluation results, the following classification was made: • ⊚: Total score of 10 panelists is 25 or more • ◯: Total score of 10 panelists is 20-24 • Δ: Total score of 10 panelists is 16-19 • x: The total score of 10 panelists is 15 or less
Evaluation was made by 10 panelists according to the following criteria. • 3: Almost no change compared to immediately after preparation. • 2: Color changes compared to immediately after preparation. • 1: Strongly colored compared to immediately after preparation.
Based on the evaluation results, the following classification was made: • ◯: Total score of 10 panelists is 25 or more • Δ: Total score of 10 panelists is 16-24 • x: The total score of 10 panelists is 15 or less

[4] = pH 6, stored at 50° C., two weeks later

Row | SMILES | Melanin production inhibition effect (B16 melanoma 4A5 cells) | Collagen production promoting effect [1] | Hyaluronic acid production promoting effect [2] | other results
1 | CCCCCCCCOC1=C(OCC(C)(C)O)[C@@H]([C@@H](O)CO)OC1=O [Synthesis Example 21, 2-O-octyl-3-O-(2-hydroxyisobutyl) ascorbic acid] | ++ (40-60%: ++) | ++ (120%: ++) | +++ (150%: +++) | 
2 | CC(C)(O)COC1=C(OCC(O)CO)[C@@H]([C@@H](O)CO)OC1=O (stereo partly shown) [Synthesis Example 13, 2-O-(2-hydroxyisobutyl)-3-O-glyceryl ascorbic acid] | ++ (40-60%: ++) | ++ (120%: ++) | ++ (120-150%: ++) | 
3 | CCCOC1=C(OCC(C)(C)O)[C@@H]([C@@H](O)CO)OC1=O [Synthesis Example 33, 2-O-propyl-3-O-(2-hydroxyisobutyl) ascorbic acid] | ++ (40-60%: ++) | ++ (120%: ++) | ++ (120-150%: ++) | 
4 | CCCCCCCCCCOC1=C(OCC(C)(C)O)[C@@H]([C@@H](O)CO)OC1=O [Synthesis Example 22, 2-O-decyl-3-O-(2-hydroxyisobutyl) ascorbic acid] | ++ (40-60%: ++) |  |  | 
5 | CC(C)(O)COC1=C(OCC(O)CO)C(=O)O[C@@H]1[C@@H](O)CO (stereo partly shown) [Synthesis Example 28, 2-O-glyceryl-3-O-(2-hydroxyisobutyl) ascorbic acid] | + (20-40%: +) |  | ++ (120-150%: ++) | 
6 | CC(C)(O)COC1=C(OCc2ccccc2)C(=O)O[C@@H]1[C@@H](O)CO [Synthesis Example 27, 2-O-benzyl-3-O-(2-hydroxyisobutyl) ascorbic acid] | ++ (40-60%: ++) | ++ (120%: ++) | +++ (150%: +++) | 
7 | CCCCCCCCCCCCCCCCOC1=C(OCC(C)(C)O)C(=O)O[C@@H]1[C@@H](O)CO [Synthesis Example 10, 2-O-(2-hydroxyisobutyl)-3-O-hexadecylascorbic acid] | + (20-40%: +) |  |  | 
8 | O=C1O[C@H]([C@@H](O)CO)C(O)=C1O [Ascorbic acid] |  |  |  | Residual rate ([3]; pH 6, 50° C., initial): ⊚ (⊚: 90% or more); Coloring ([3]; pH 6, 50° C., initial): ◯ (◯: Total score of 10 panelists is 25 or more); Odor ([3]; pH 6, 50° C., initial): ◯ (◯: Total score of 10 panelists is 20-24); Residual rate [3, 4]: Δ (Δ: 60% or more, less than 80%); Coloring [3, 4]: Δ (Δ: Total score of 10 panelists is 16-24); Odor [3, 4]: Δ (Δ: Total score of 10 panelists is 16-19)
9 | CCCCCCCCCCOC1=C(OCC(C)(C)O)C(=O)O[C@@H]1[C@@H](O)CO [Synthesis Example 7, 2-O-(2-hydroxyisobutyl)-3-O-decyl ascorbic acid] | +++ (60-100%: +++) | ++ (120%: ++) |  | 
10 | CCCCCCCCCCCCOCC(O)COC1=C(OCC(C)(C)O)C(=O)OC1C(O)CO (stereo not shown) [Synthesis Example 16, 2-O-(2-hydroxyisobutyl)-3-O-(2-hydroxy-3-O-dodecyl) ascorbic acid] | + (20-40%: +) |  | ++ (120-150%: ++) | 
11 | CCCCCCCCCCCCCCCCOC1=C(OCC(C)(C)O)[C@@H]([C@@H](O)CO)OC1=O [Synthesis Example 25, 2-O-hexadecyl-3-O-(2-hydroxyisobutyl) ascorbic acid] | + (20-40%: +) | ++ (120%: ++) | ++ (120-150%: ++) | 
12 | CCCCC(CC)COCC(O)COC1=C(OCC(C)(C)O)C(C(O)CO)OC1=O (stereo not shown) [Synthesis Example 30, 2-O-(2-hydroxy-3-O-ethylhexyl)-3-O-(2-hydroxyisobutyl) ascorbic acid] | + (20-40%: +) |  | +++ (150%: +++) | 
13 | CCCCOCC(O)COC1=C(OCC(C)(C)O)C(C(O)CO)OC1=O (stereo not shown) [Synthesis Example 29, 2-O-(2-hydroxy-3-O-butyl)-3-O-(2-hydroxyisobutyl) ascorbic acid] |  | ++ (120%: ++) |  | 
14 | CCCCC(CC)COCC(O)COC1=C(OCC(C)(C)O)C(=O)OC1C(O)CO (stereo not shown) [Synthesis Example 15, 2-O-(2-hydroxyisobutyl)-3-O-(2-hydroxy-3-O-ethylhexyl) ascorbic acid] | + (20-40%: +) | ++ (120%: ++) |  | 
15 | CC(C)(O)COC1=C(OCc2ccccc2)[C@@H]([C@@H](O)CO)OC1=O [Synthesis Example 12, 2-O-(2-hydroxyisobutyl)-3-O-benzyl ascorbic acid] | +++ (60-100%: +++) | ++ (120%: ++) | +++ (150%: +++) | 
16 | CCCCCCOC1=C(OCC(C)(C)O)C(=O)O[C@@H]1[C@@H](O)CO [Synthesis Example 5, 2-O-(2-hydroxyisobutyl)-3-O-hexyl ascorbic acid] | + (20-40%: +) | ++ (120%: ++) |  | 
17 | CCCCCCOC1=C(OCC(C)(C)O)[C@@H]([C@@H](O)CO)OC1=O [Synthesis Example 20, 2-O-hexyl-3-O-(2-hydroxyisobutyl) ascorbic acid] | ++ (40-60%: ++) | ++ (120%: ++) |  | 
18 | CCCCOC1=C(OCC(C)(C)O)[C@@H]([C@@H](O)CO)OC1=O [Synthesis Example 19, 2-O-butyl-3-O-(2-hydroxyisobutyl) ascorbic acid] | + (20-40%: +) | ++ (120%: ++) |  | 
19 | CCCCCCCCOC1=C(OCC(C)(C)O)C(=O)O[C@@H]1[C@@H](O)CO [Synthesis Example 6, 2-O-(2-hydroxyisobutyl)-3-O-octyl ascorbic acid] | +++ (60-100%: +++) | ++ (120%: ++) |  | 
20 | CCCCOC1=C(OCC(C)(C)O)C(=O)O[C@@H]1[C@@H](O)CO [Synthesis Example 4, 2-O-(2-hydroxyisobutyl)-3-O-butylascorbic acid] |  | ++ (120%: ++) |  | 
